Like-named read-outs stand apart in the source and are kept apart here. Blank lines part the entries; values can stand above or below the compound they belong to.
Tests used:
[1] = target: T1, α1C Human Adrenergic Receptor (Homo sapiens, UniProt P35348); experiment: Equilibrium competition binding, [3H] prazosin, membranes of transfected LM(tk-) cells
T1 construct: expressed in transfected cells; host or cells: LM(tk-) cells
T1 sequence (P35348 1-466): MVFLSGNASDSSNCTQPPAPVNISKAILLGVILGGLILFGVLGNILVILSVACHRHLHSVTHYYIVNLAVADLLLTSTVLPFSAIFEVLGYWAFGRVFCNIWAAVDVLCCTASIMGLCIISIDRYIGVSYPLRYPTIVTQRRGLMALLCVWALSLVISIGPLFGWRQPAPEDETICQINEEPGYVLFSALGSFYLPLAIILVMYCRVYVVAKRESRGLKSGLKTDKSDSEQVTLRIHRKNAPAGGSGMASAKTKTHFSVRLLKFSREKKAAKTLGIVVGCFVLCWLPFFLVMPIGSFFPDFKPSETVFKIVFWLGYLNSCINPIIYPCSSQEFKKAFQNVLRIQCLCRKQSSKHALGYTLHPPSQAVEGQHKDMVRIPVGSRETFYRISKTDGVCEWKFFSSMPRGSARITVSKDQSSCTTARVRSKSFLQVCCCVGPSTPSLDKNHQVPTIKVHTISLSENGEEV
Method: Binding and functional assays were performed using stably transfected human alpha adrenergic receptors. Equilibrium competition binding assays were performed with membrane preparations from cultured LM(tk-) cells stably transfected with the cloned human adrenoceptor subtypes except for α2b, which was expressed in Y-1 cells, using [^3H] prazosin for α1 receptors and [^3H] rauwolscine for α2 receptors.
Transfected cells from culture flasks were scraped into 5 ml of 5 mM Tris-HCl, 5 mM EDTA, pH 7.5, and lysed by sonication. The cell lysates were centrifuged at 1000 rpm for 5 min at 4° C., and the supernatant was centrifuged at 30,000×g for 20 min at 4° C. The pellet was suspended in 50 mM Tris-HCl, 1 mM MgCl2, and 0.1% ascorbic acid at pH 7.5. Binding of α2 antagonist [^3H] rauwolscine ([…]) to membrane preparations of LM(tk-) cells was done in a final volume of 0.25 ml and incubated at 37° C. for 20 min. Nonspecific binding was determined in the presence of 10 μM phentolamine. The reaction was stopped by filtration through GF/B filters using a cell harvester.
The construct involved ligation three partial overlapping fragments: a 5′ 0.6 kb HincII genomic clone, a central 1.8 EcoRI hippocampal cDNA clone, and a 3′ 0.6 Kb PstI genomic clone. The hippocampal cDNA fragment overlaps with the 5′ and 3′ genomic clones so that the HincII and PstI sites at the 5 and 3′ ends of the cDNA clone, respectively, were utilized for ligation. This full-length clone was cloned into the KpnI site of the expression vector, using the 5′ and 3′ KpnI sites of the fragment, derived from vector (i.e., pBluescript) and 3′-untranslated sequences, respectively. Stable cell lines were selected as described above.

[2] = target: T2, α2B Human Adrenergic Receptor (Homo sapiens, UniProt P18089); assay type: cell-based
T2 construct: expressed in transfected cells; host or cells: Y-1 cells
T2 sequence (P18089 1-450): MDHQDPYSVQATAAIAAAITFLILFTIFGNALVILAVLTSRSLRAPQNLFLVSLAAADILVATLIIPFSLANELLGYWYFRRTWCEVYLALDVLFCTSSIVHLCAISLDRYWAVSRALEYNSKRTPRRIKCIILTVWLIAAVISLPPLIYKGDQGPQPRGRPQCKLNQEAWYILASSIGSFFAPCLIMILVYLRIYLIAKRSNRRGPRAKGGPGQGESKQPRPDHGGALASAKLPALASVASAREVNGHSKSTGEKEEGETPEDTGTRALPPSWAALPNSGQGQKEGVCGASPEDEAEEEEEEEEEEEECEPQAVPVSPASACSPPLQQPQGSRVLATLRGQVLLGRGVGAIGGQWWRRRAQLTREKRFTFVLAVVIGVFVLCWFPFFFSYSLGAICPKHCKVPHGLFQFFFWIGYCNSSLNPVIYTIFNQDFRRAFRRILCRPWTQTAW

[3] = target: T3, α2C Human Adrenergic Receptor (Homo sapiens, UniProt P18825); assay type: cell-based; design: The entire coding region of α2C (1383 bp), including 2 bp of 5′ UT and 400 bp of 3′ UT; expressed in transfected cells; host or cells: LM(tk-) cells; details: for I.A Alpha-2 C: functional cAMP assay
T3 sequence (P18825 1-462): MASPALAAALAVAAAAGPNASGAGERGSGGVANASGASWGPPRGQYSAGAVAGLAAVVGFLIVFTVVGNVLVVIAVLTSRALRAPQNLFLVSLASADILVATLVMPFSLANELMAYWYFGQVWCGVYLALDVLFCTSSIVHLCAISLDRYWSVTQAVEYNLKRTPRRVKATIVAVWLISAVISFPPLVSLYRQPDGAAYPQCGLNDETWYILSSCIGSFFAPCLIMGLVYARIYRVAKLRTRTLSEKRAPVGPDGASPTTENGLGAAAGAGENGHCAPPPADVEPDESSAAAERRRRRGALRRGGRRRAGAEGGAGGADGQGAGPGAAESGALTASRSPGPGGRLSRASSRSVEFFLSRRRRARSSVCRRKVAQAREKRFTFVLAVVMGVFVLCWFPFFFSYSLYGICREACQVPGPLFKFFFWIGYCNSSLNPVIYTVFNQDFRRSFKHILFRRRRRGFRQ

[4] = cloned human receptor, [3H] prazosin, read-out: pKi Alpha-1 C (converted)
[5] = inhibition of forskolin-stimulated cAMP, NA: Not Active, read-out: pEC50 Alpha-2 C (converted)
[6] = inhibition of forskolin-stimulated cAMP, NA: Not Active, read-out: pEC50 Alpha-2 B (converted)
[7] = inhibition of forskolin-stimulated cAMP, NA: Not Active

Structure (SMILES): Cc1nc2ccc(NC3=NCCN3)c(Br)c2[nH]1 [Example 42, 2-Methyl-4-bromo-5-(2-imidazolin-2-ylamino)Benzimidazole]
Ki [1, 4]: 8130 nM
EC50 [2]: 97.7 nM
I.A Alpha-2 B [2]: 0.60

Structure (SMILES): Brc1cc2nc[nH]c2c(Br)c1NC1=NCCN1 [Example 50, 4,6-Dibromo-5-(2-imidazolin-2-ylamino)Benzimidazole]
EC50 [3]: 70.8 nM
I.A Alpha-2 C [3]: 1.00
Ki [1, 4]: 776 nM
EC50 [2]: 20.9 nM
I.A Alpha-2 B [2]: 0.90

Structure (SMILES): CCc1nc2ccc(NC3=NCCN3)c(Br)c2[nH]1 [Example 43, 2-Ethyl-4-bromo-5-(2-imidazolin-2-ylamino)Benzimidazole]
I.A Alpha-2 C [3]: 0.90
Ki [1, 4]: 2140 nM
EC50 [2]: 162 nM
I.A Alpha-2 B [2]: 0.80

I.A Alpha-2 C [3]: 0.60
EC50 [3, 5]: 1.35 nM
Ki [1, 4]: 120 nM
I.A Alpha-2 B ([2]; functional cAMP assay): 0.80
EC50 [2, 6]: 200 nM
Structure (SMILES): Brc1c(NC2=NCCN2)ccc2nc(C(c3ccccc3)c3ccccc3)[nH]c12 [Example 48, 2-Diphenylmethyl-4-bromo-5-(2-imidazolin-2-ylamino)Benzimidazole]

Structure (SMILES): Cn1cnc2ccc(NC3=NCCN3)c(Br)c21 [Example 12, 3-Methyl-4-bromo-5-(imidazolin-2-ylamino)Benzimidazole]
I.A Alpha-2 C [3]: 1.00
pEC50 Alpha-2 C [3, 7]: 7.76
pKi Alpha-1 C ([1]; cloned human receptor, [3H] prazosin): 6.46
I.A Alpha-2 B ([2]; functional cAMP assay): 1.00
pEC50 Alpha-2 B [2, 7]: 7.51

Structure (SMILES): CCCCc1cc(NC2=NCCN2)cc2[nH]cnc12 [Example 56, 7-Butyl-5-(2-imidazolin-2-ylamino)Benzimidazole]
I.A Alpha-2 C [3]: 1.00
Ki [1, 4]: 589 nM
I.A Alpha-2 B ([2]; functional cAMP assay): 0.30
EC50 [2, 6]: 219 nM

Structure (SMILES): CC(C)(C)c1nc2ccc(NC3=NCCN3)c(Br)c2[nH]1 [Example 45, 2-tert-Butyl-4-bromo-5-(2-imidazolin-2-ylamino)Benzimidazole]
I.A Alpha-2 C [3]: 0.60
Ki [1, 4]: 2190 nM
EC50 [2]: 851 nM
I.A Alpha-2 B [2]: 0.70

Structure (SMILES): Clc1cc(NC2=NCCN2)c(Br)c2[nH]cnc12 [Example 60, 4-Bromo-7-chloro-5-(2-imidazolin-2-ylamino)Benzimidazole]
EC50 [3]: 0.398 nM
I.A Alpha-2 C [3]: 1
Ki [1, 4]: 479 nM
EC50 [2]: 17.8 nM
I.A Alpha-2 B [2]: 0.9

EC50 [3, 5]: 0.355 nM
Ki [1, 4]: 724 nM
EC50 [2, 6]: 9.77 nM
Structure (SMILES): Cc1c(N=C2NCCN2)ccc2[nH]cnc12 [Example 4, 4-Methyl-5-(2-imidazolin-2-ylamino)Benzimidazole]

Structure (SMILES): OCCn1cnc2c(Br)c(NC3=NCCN3)ccc21 [Example 38, 1-(2-Hydroxyethyl)-4-bromo-5-(2-imidazolin-2-ylamino)Benzimidazole]
I.A Alpha-2 C [3]: 1.00
EC50 [3, 5]: 363 nM
Ki [1]: 6760 nM
I.A Alpha-2 B ([2]; functional cAMP assay): 0.80
EC50 [2, 6]: 158 nM

Structure (SMILES): Brc1c(NC2=NCCN2)ccc2nc[nH]c12 [Example 2, 4-Bromo-5-(2-imidazolin-2-ylamino)Benzimidazole]
I.A Alpha-2 C [3]: 1.00
EC50 [3, 5]: 117 nM
Ki [1]: 1700 nM
I.A Alpha-2 B ([2]; functional cAMP assay): 1.00
EC50 [2, 6]: 18.6 nM

Structure (SMILES): FC(F)(F)c1nc2ccc(NC3=NCCN3)c(Br)c2[nH]1 [Example 46, 2-Trifluoromethyl-4-bromo-5-(2-imidazolin-2-ylamino)Benzimidazole]
I.A Alpha-2 C [3]: 0.90
Ki [1, 4]: 10700 nM
EC50 [2]: 589 nM
I.A Alpha-2 B [2]: 0.80

Structure (SMILES): CC(C)c1nc2ccc(NC3=NCCN3)c(Br)c2[nH]1 [Example 44, 2-Isopropyl-4-bromo-5-(2-imidazolin-2-ylamino)Benzimidazole]
I.A Alpha-2 C [3]: 0.80
EC50 [3, 5]: 182 nM
Ki [1, 4]: 3090 nM
EC50 [2]: 91.2 nM
I.A Alpha-2 B [2]: 0.80

Structure (SMILES): COc1ccc(Cn2cnc3c(Br)c(NC4=NCCN4)ccc32)cc1 [Example 36, 1-(4-Methoxybenzyl)-4-bromo-5-(2-imidazolin-2-ylamino)Benzimidazole]
Ki [1]: 6460 nM
I.A Alpha-2 B ([2]; functional cAMP assay): 0.60
EC50 [2, 6]: 282 nM

Structure (SMILES): Cn1cnc2cc(NC3=NCCN3)ccc21 [Example 9, 1-Methyl-5-(2-imidazolin-2-ylamino)Benzimidazole]
I.A Alpha-2 C [3]: 1.00
Ki [1, 4]: 6760 nM
I.A Alpha-2 B ([2]; functional cAMP assay): 1.00
EC50 [2, 6]: 58.9 nM

Structure (SMILES): Clc1cc(NC2=NCCN2)cc2[nH]cnc12 [Example 53, 7-Chloro-5-(2-imidazolin-2-ylamino)Benzimidazole]
EC50 [3]: 1.07 nM
I.A Alpha-2 C [3]: 1.00
Ki [1, 4]: 1000 nM
EC50 [2]: 18.2 nM
I.A Alpha-2 B [2]: 1.00

Structure (SMILES): Ic1c(NC2=NCCN2)ccc2nc[nH]c12 [Example 5, 4-Iodo-5-(2-imidazolin-2-ylamino)Benzimidazole]
EC50 [3]: 1.35 nM
I.A Alpha-2 C [3]: 1.00
Ki [1, 4]: 2240 nM
EC50 [2]: 46.8 nM
I.A Alpha-2 B [2]: 1.00

Structure (SMILES): c1nc2ccc(NC3=NCCN3)cc2[nH]1 [Example 1, 5-(2-Imidazolin-2-ylamino)Benzimidazole]
EC50 [3]: 2.75 nM
I.A Alpha-2 C [3]: 1.00
Ki [1, 4]: 5250 nM
EC50 [2]: 44.7 nM
I.A Alpha-2 B [2]: 1.00

Structure (SMILES): Cn1cnc2c(Br)c(NC3=NCCN3)ccc21 [Example 10, 1-Methyl-4-bromo-5-(2-imidazolin-2-ylamino)Benzimidazole]
EC50 [3]: 2.34 nM
I.A Alpha-2 C [3]: 1.00
Ki [1, 4]: 851 nM
EC50 [2]: 102 nM
I.A Alpha-2 B [2]: 1.00

Structure (SMILES): CCCc1c(NC2=NCCN2)ccc2nc[nH]c12 [Example 7, 4-n-Propyl-5-(2-imidazolin-2-ylamino)Benzimidazole]
EC50 [3]: 6.17 nM
I.A Alpha-2 C [3]: 1.00
Ki [1, 4]: 2000 nM
EC50 [2]: 200 nM
I.A Alpha-2 B [2]: 1.00

Structure (SMILES): Clc1c(NC2=NCCN2)ccc2nc[nH]c12 [Example 3, 4-Chloro-5-(2-imidazolin-2-ylamino)Benzimidazole]
EC50 [3]: 0.562 nM
I.A Alpha-2 C [3]: 1.00
Ki [1, 4]: 1910 nM
I.A Alpha-2 B ([2]; functional cAMP assay): 1.00
EC50 [2, 6]: 12.6 nM

Structure (SMILES): CCCCc1c(NC2=NCCN2)ccc2nc[nH]c12 [Example 8, 4-n-Butyl-5-(2-imidazolin-2-ylamino)Benzimidazole]
I.A Alpha-2 C [3]: 1.00
Ki [1, 4]: 2000 nM
I.A Alpha-2 B ([2]; functional cAMP assay): 0.80
EC50 [2, 6]: 234 nM
